Organism: Rattus norvegicus
Test: Open TG-GATES - Regimen: Daily Repeat
Format: toxicity, organism-based, Sprague-Dawley
Parameters: regimen Daily Repeat, gender Male, age 6 weeks
Details: in vivo, po, 0 mg/kg, route gavage, dose level Control; for APTT / Bas / Eos / Fbg / Hb / Ht / Lym / MCH / MCHC / MCV / Mono / Neu / PT / Plat / RBC / Ret / WBC: tissue Blood; for KIDNEY_L / KIDNEY_R / KIDNEY_TOTAL: tissue Kidney; for LIVER: tissue Liver; for ALP / ALT / AST / BUN / CRE / Ca / DBIL / GLC / IP / K / LDH / Na / PL / RALB / TBIL / TC / TG / TP / gamma-GTP: tissue Plasma

`CSc1ccc2c(c1)N(CCC1CCCCN1C)c1ccccc1S2` (stereo not drawn) [THIORIDAZINE] showed a TERMINAL_BW (72 h, time 3 day) of 237.9 g, an APTT (72 h, time 3 day) of 16.6 s and a Bas (72 h, time 3 day) of 0%. For the same compound, the Eos (72 h, time 3 day) was 1%, the Fbg (72 h, time 3 day) was 215.2 mg/dL and the Hb (72 h, time 3 day) was 13.7 g/dL. For the same compound, the Ht (72 h, time 3 day) was 40.7%, the Lym (72 h, time 3 day) was 78% and the MCH (72 h, time 3 day) was 21.7 pg. For the same compound, the MCHC (72 h, time 3 day) was 33.7%, the MCV (72 h, time 3 day) was 64.4 fL and the Mono (72 h, time 3 day) was 8.4%. For the same compound, the Neu (72 h, time 3 day) was 13%, the PT (72 h, time 3 day) was 11.9 s and the Plat (72 h, time 3 day) was 107.7 x10_4/uL. It also gave an RBC (72 h, time 3 day) of 631.6 x10_4/ul, a Ret (72 h, time 3 day) of 8.1% and a WBC (72 h, time 3 day) of 120 x10_2/uL. For the same compound, the KIDNEY_L (72 h, time 3 day) was 1.1 g, the KIDNEY_R (72 h, time 3 day) was 1.1 g and the KIDNEY_TOTAL (72 h, time 3 day) was 2.2 g. The LIVER (72 h, time 3 day) was 12 g, the ALP (72 h, time 3 day) was 821.6 IU/L and the ALT (72 h, time 3 day) was 37 IU/L. The AST (72 h, time 3 day) was 63.8 IU/L, the BUN (72 h, time 3 day) was 16.6 mg/dL and the CRE (72 h, time 3 day) was 0.5 mg/dL. It also gave a Ca (72 h, time 3 day) of 11.1 mg/dL, a DBIL (72 h, time 3 day) of 0.034 mg/dL and a GLC (72 h, time 3 day) of 193.4 mg/dL. It also gave an IP (72 h, time 3 day) of 9.3 mg/dL, a K (72 h, time 3 day) of 5.2 meq/L and an LDH (72 h, time 3 day) of 95 IU/L. It also gave a Na (72 h, time 3 day) of 139.4 meq/L, a PL (72 h, time 3 day) of 159.6 mg/dL and an RALB (72 h, time 3 day) of 4.2 g/dL. For the same compound, the TBIL (72 h, time 3 day) was 0.4 mg/dL, the TC (72 h, time 3 day) was 87 mg/dL and the TG (72 h, time 3 day) was 88.2 mg/dL. For the same compound, the TP (72 h, time 3 day) was 6 g/dL, the gamma-GTP (72 h, time 3 day) was 1.2 IU/L and the TERMINAL_BW ([…], time 7 day) was 272.6 g. For the same compound, the TERMINAL_BW ([…], time 14 day) was 326.5 g, the TERMINAL_BW ([…], time 28 day) was 411.3 g and the APTT ([…], time 7 day) was 15.1 s. For the same compound, the Bas ([…], time 7 day) was 0%, the Eos ([…], time 7 day) was 0.6% and the Fbg ([…], time 7 day) was 241.2 mg/dL. The Hb ([…], time 7 day) was 13.9 g/dL, the Ht ([…], time 7 day) was 41.7% and the Lym ([…], time 7 day) was 83%. For the same compound, the MCH ([…], time 7 day) was 21.7 pg, the MCHC ([…], time 7 day) was 33.3% and the MCV ([…], time 7 day) was 65 fL. For the same compound, the Mono ([…], time 7 day) was 6.2%, the Neu ([…], time 7 day) was 10.2% and the PT ([…], time 7 day) was 11.6 s. For the same compound, the Plat ([…], time 7 day) was 100.8 x10_4/uL, the RBC ([…], time 7 day) was 642.4 x10_4/ul and the Ret ([…], time 7 day) was 5.4%. The WBC ([…], time 7 day) was 141.4 x10_2/uL, the APTT ([…], time 14 day) was 16.8 s and the Bas ([…], time 14 day) was 0%. For the same compound, the Eos ([…], time 14 day) was 0.6%, the Fbg ([…], time 14 day) was 243.4 mg/dL and the Hb ([…], time 14 day) was 14.4 g/dL. It also gave a Ht ([…], time 14 day) of 42.9%, a Lym ([…], time 14 day) of 78.4% and an MCH ([…], time 14 day) of 20.6 pg. For the same compound, the MCHC ([…], time 14 day) was 33.5%, the MCV ([…], time 14 day) was 61.5 fL and the Mono ([…], time 14 day) was 6.4%. It also gave a Neu ([…], time 14 day) of 14.6%, a PT ([…], time 14 day) of 11.5 s and a Plat ([…], time 14 day) of 106.3 x10_4/uL. For the same compound, the RBC ([…], time 14 day) was 697.6 x10_4/ul, the Ret ([…], time 14 day) was 4.5% and the WBC ([…], time 14 day) was 129.7 x10_2/uL. It also gave an APTT ([…], time 28 day) of 18.1 s, a Bas ([…], time 28 day) of 0% and an Eos ([…], time 28 day) of 0.6%. For the same compound, the Fbg ([…], time 28 day) was 234.6 mg/dL, the Hb ([…], time 28 day) was 15.2 g/dL and the Ht ([…], time 28 day) was 45.5%. It also gave a Lym ([…], time 28 day) of 83.4%, an MCH ([…], time 28 day) of 19.8 pg and an MCHC ([…], time 28 day) of 33.4%. The MCV ([…], time 28 day) was 59.2 fL, the Mono ([…], time 28 day) was 7.6% and the Neu ([…], time 28 day) was 8.2%. It also gave a PT ([…], time 28 day) of 11.8 s, a Plat ([…], time 28 day) of 98 x10_4/uL and an RBC ([…], time 28 day) of 769.4 x10_4/ul. The Ret ([…], time 28 day) was 3%, the WBC ([…], time 28 day) was 131.4 x10_2/uL and the KIDNEY_L ([…], time 7 day) was 1.2 g. The KIDNEY_R ([…], time 7 day) was 1.2 g, the KIDNEY_TOTAL ([…], time 7 day) was 2.4 g and the KIDNEY_L ([…], time 14 day) was 1.3 g. It also gave a KIDNEY_R ([…], time 14 day) of 1.3 g, a KIDNEY_TOTAL ([…], time 14 day) of 2.6 g and a KIDNEY_L ([…], time 28 day) of 1.5 g. It also gave a KIDNEY_R ([…], time 28 day) of 1.5 g, a KIDNEY_TOTAL ([…], time 28 day) of 2.9 g and an LIVER ([…], time 7 day) of 13.4 g. It also gave an LIVER ([…], time 14 day) of 15.6 g, an LIVER ([…], time 28 day) of 18.7 g and an ALP ([…], time 7 day) of 973 IU/L. The ALT ([…], time 7 day) was 32.4 IU/L, the AST ([…], time 7 day) was 65 IU/L and the BUN ([…], time 7 day) was 18.2 mg/dL. The CRE ([…], time 7 day) was 0.5 mg/dL, the Ca ([…], time 7 day) was 11.4 mg/dL and the DBIL ([…], time 7 day) was 0.016 mg/dL. The GLC ([…], time 7 day) was 181.2 mg/dL, the IP ([…], time 7 day) was 9 mg/dL and the K ([…], time 7 day) was 5.2 meq/L. For the same compound, the LDH ([…], time 7 day) was 149.4 IU/L, the Na ([…], time 7 day) was 141.6 meq/L and the PL ([…], time 7 day) was 175 mg/dL. It also gave an RALB ([…], time 7 day) of 4 g/dL, a TBIL ([…], time 7 day) of 0.3 mg/dL and a TC ([…], time 7 day) of 89.2 mg/dL. It also gave a TG ([…], time 7 day) of 140.8 mg/dL, a TP ([…], time 7 day) of 5.9 g/dL and a gamma-GTP ([…], time 7 day) of 1.4 IU/L. For the same compound, the ALP ([…], time 14 day) was 864.8 IU/L, the ALT ([…], time 14 day) was 33.4 IU/L and the AST ([…], time 14 day) was 57.2 IU/L. The BUN ([…], time 14 day) was 19 mg/dL, the CRE ([…], time 14 day) was 0.5 mg/dL and the Ca ([…], time 14 day) was 10.8 mg/dL. The DBIL ([…], time 14 day) was 0.014 mg/dL, the GLC ([…], time 14 day) was 189.8 mg/dL and the IP ([…], time 14 day) was 8 mg/dL. It also gave a K ([…], time 14 day) of 4.9 meq/L, an LDH ([…], time 14 day) of 96.8 IU/L and a Na ([…], time 14 day) of 139.8 meq/L. It also gave a PL ([…], time 14 day) of 163.6 mg/dL, an RALB ([…], time 14 day) of 4.1 g/dL and a TBIL ([…], time 14 day) of 0.3 mg/dL. It also gave a TC ([…], time 14 day) of 71.8 mg/dL, a TG ([…], time 14 day) of 200.4 mg/dL and a TP ([…], time 14 day) of 6.3 g/dL. The gamma-GTP ([…], time 14 day) was 0.8 IU/L, the ALP ([…], time 28 day) was 618.8 IU/L and the ALT ([…], time 28 day) was 34.6 IU/L. For the same compound, the AST ([…], time 28 day) was 62 IU/L, the BUN ([…], time 28 day) was 20.4 mg/dL and the CRE ([…], time 28 day) was 0.6 mg/dL. It also gave a Ca ([…], time 28 day) of 10.7 mg/dL, a DBIL ([…], time 28 day) of 0 mg/dL and a GLC ([…], time 28 day) of 191.4 mg/dL. For the same compound, the IP ([…], time 28 day) was 6.7 mg/dL, the K ([…], time 28 day) was 4.5 meq/L and the LDH ([…], time 28 day) was 135.2 IU/L. The Na ([…], time 28 day) was 139.4 meq/L, the PL ([…], time 28 day) was 170.8 mg/dL and the RALB ([…], time 28 day) was 4.1 g/dL. For the same compound, the TBIL ([…], time 28 day) was 0.3 mg/dL, the TC ([…], time 28 day) was 87.4 mg/dL and the TG ([…], time 28 day) was 186.2 mg/dL. The TP ([…], time 28 day) was 6.5 g/dL.

Source: ChEMBL document CHEMBL3885861, “Open TG-GATES”
